# Tests used:
# [1] = target: PDIA1 (Homo sapiens, UniProt P07237); assay: Target validation in cells with biotinylated analogues (streptavidin blot, pull down, LCMS); format: cell-based; details: streptavidin blot and pull down of treated MM1.S cells
# Procedure: FIGS. 4A-4G provide graphs and images showing that model-based design improves potency and selectivity of protein disulfide isomerase A1 (PDIA1) inhibitors. (A) Ribbon diagram of CCF642-34 docked onto PDIA1. (B) Two-dimensional structure of modified CCF642 pharmacophore, where R represents amino acids tryptophan, tyrosine, phenylalanine, histidine, proline, or alanine. (C) PDIA1/PH4B activity assay was performed in the absence or presence of CCF642 or (D) CCF642-34. In time-dependent inhibition of di-E-GSSG, reduction was monitored for 1 h by the increase in fluorescence, and the relative fluorescence unit was plotted as a function of time. (E-F) The observed rate constant for inhibition, kobs, at each concentration determined from the slope of kinetic data presented in panel C and D. The kobs values are re-plotted against inhibitor concentration and fitted to a hyperbolic equation, kobs=k2[I]/(Ki+[I]), to obtain values for Ki and k2 in GraphPad Prism v8.0.2. The concentration of drug is indicated on each curve, for (E) 642 and (F) CCF642-34. (G) Target validation. […]
# Mass spectrometry: Tryptic peptide mixtures were analyzed by online LC-coupled tandem mass spectrometry (LCMS/MS) on an Orbitrap mass spectrometer (Thermo Fisher) as described previously. […] A peak list was created for each analyzed fraction (i.e., gel slice) and individual Sequest searches were performed for each fraction. […]
# [2] = test system: 5TGM1-luc myeloma cells; assay: 5TGM1-luc/C57BL/KaLwRij syngeneic mouse model of myeloma; format: in vivo
# Procedure: FIGS. 8A & 8B provide graphs showing the stability of CCF642-34 and restriction of multiple myeloma in a syngeneic mouse model by PDIA1-inhibitor CCF642-34. (A) The stability of CCF642-34 was measured against oxidative metabolism by human liver microsomes. CCF642-34 (20 μM) was incubated with 0.25 mg/mL of human liver microsomes for 5 h. The residual compound at indicated time points was measured by HPLC (Agilent 1260 Infinity II) interfaced with reverse phase C18 column using 280 nm and 245 nm detection wavelength. The standard curve of known concentrations of CCF642-34 was obtained from the area under the peak at two wavelengths, and the remaining CCF642-34 was estimated. Data are representative of two independent experiments. (B) 5TGM1-luc/C57BL/KaLwRij mouse models of myeloma (3 males, 3 females per treatment group) were engrafted with 2×10^6 5TGM1-luc cells via tail vein injection and treated 3 times a week for 8 weeks per oral gavage with 20 mg/kg of CCF642-34 dissolved in 10% 2-hydroxy-propyl-o-cyclodextrin. The survival of each group was monitored, and Kaplan-Meier survival analysis was performed. All control animals required euthanasia before 52 days (due to paraparesis, weight loss, poor general condition), while 3 out of 6 mice treated with CCF642-34 lived beyond 6 months with no sign of disease.
# Mouse experiment: Animal care and procedures were conducted in accordance with institutional guidelines approved by the Institutional Animal Care and Use Committee (IACUC). […]
# To evaluate whether CCF642-34 achieved anti-myeloma efficacy after oral administration in vivo we used the 5TGM1-luc/C57BL/KaLwRij syngeneic mouse model. […] Mouse weight was monitored along with systemic symptoms of distress or disease. […] The intensity of luminescence was not good enough for the detection of bioluminescence, which is a common issue in the imaging of B57 black 6 mice. Therefore, the inventors primarily monitored the survival, and the disease burden was determined in the bone marrow cells at the time of sacrifice of a moribund mice. […]
# [3] = 20 mg/kg oral gavage 3 times a week for 8 weeks
# PDIA1, sequence (P07237 18-508): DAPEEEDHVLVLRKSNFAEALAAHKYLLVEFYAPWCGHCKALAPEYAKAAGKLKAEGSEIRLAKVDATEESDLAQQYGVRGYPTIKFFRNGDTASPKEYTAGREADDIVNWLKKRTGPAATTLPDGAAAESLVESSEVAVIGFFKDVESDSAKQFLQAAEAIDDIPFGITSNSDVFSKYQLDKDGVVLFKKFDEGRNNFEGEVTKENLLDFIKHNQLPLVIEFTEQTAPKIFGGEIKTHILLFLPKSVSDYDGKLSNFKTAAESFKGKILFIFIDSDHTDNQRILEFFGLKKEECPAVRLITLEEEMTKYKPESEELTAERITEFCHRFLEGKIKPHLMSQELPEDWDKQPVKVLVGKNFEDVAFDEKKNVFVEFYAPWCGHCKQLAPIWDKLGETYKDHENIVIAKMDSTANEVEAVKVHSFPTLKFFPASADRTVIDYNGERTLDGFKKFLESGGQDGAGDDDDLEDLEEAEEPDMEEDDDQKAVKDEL
smiles,measurement,setting,value
NC(CC1CNc2ccccc21)C(=O)NCCCOc1ccc(N2C(=O)/C(=C/c3ccc([N+](=O)[O-])s3)SC2=S)cc1 (stereo not shown) [CCF642-34],binding selectivity in MM1.S cells,[1],remarkable selectivity for PDIA1
same,mice living beyond 6 months with no sign of disease,[2]; [3],3 out of 6
same,mice living beyond 180 days with no sign of disease,[2]; [3],3 out of 6
same,adverse events as assessed by weight and animal behavior,"[2]; oral treatment, 8 weeks",no obvious adverse events
